Experimental data published in US20240182445A1 (ONO PHARMACEUTICAL CO., LTD., priority 2019, published 2024).

What follows are molecules tested against T1, human TREK-1 (Homo sapiens, UniProt O95069) (assay: TREK-1 Thallium (Tl+) flux assay, Method 1). Conditions: TREK-1 Thallium (Tl+) flux assay, Method 1.
T1 construct: expressed in transfected cells
T1 sequence (O95069 1-426): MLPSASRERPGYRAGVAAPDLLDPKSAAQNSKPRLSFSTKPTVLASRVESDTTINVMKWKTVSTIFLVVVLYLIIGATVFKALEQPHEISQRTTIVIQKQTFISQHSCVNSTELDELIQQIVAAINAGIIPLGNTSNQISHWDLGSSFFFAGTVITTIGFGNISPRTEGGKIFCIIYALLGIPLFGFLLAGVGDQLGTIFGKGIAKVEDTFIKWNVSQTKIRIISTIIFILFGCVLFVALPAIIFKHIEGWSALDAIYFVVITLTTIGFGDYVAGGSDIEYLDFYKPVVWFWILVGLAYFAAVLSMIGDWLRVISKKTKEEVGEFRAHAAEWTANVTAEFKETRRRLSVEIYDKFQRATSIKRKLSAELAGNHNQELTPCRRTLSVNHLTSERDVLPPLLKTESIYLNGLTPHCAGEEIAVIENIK
Type: cell-based
Method in brief: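 Readout: Thallos fluorescence ratio, taken 25 s post-thallium relative to the pre-thallium baseline average, then converted to % inhibition. Cells were CHO-K1 stably expressing human TREK-1, dye-loaded and exposed to test compound (vehicle 0.3% DMSO) for 10 min prior to thallium stimulation.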

| IC50 [nM] | Compound |
| --- | --- |
| 2570 | COc1ccc(-c2cnc(NC(=O)c3c(Cl)cnn3C3CCN(C(=O)OC(C)(C)C)CC3)c(C)c2)cn1 [Compound 407, tert-butyl 4-(4-chloro-5-((6′-methoxy-5-methyl-[3,3′-bipyridin]-6-yl)carbamoyl)-1H-pyrazol-1-yl)piperidine-1-carboxylate] |
| 4170 | CC(=O)N1CCC(n2ncc(Cl)c2C(=O)Nc2ncc(-c3ccc(CC(C)C)cc3)cc2C)CC1 [Compound 418, 1-(1-acetylpiperidin-4-yl)-4-chloro-N-(5-(4-isobutylphenyl)-3-methylpyridin-2-yl)-1H-pyrazole-5-carboxamide] |
| 5120 | CC(=O)N1CCC(n2ncc(Cl)c2C(=O)Nc2ncc(-c3cc(F)c(Cl)c(F)c3)cc2C)CC1 [Compound 426, 1-(1-acetylpiperidin-4-yl)-4-chloro-N-(5-(4-chloro-3,5-difluorophenyl)-3-methylpyridin-2-yl)-1H-pyrazole-5-carboxamide] |

Same assay, conditions: TREK-1 Thallium (Tl+) flux assay; no *^12 (Method 2) mark on these rows

| Compound | IC50 [nM] |
| --- | --- |
| Cc1cc(C#Cc2ccc(F)cc2)cnc1NC(=O)c1c(Cl)cnn1[C@H]1C[C@H](NC(=O)C2CC2)C1 [Compound 198, 4-chloro-1-(trans-3-(cyclopropanecarboxamido)cyclobutyl)-N-(5-((4-fluorophenyl)ethynyl)-3-methylpyridin-2-yl)-1H-pyrazole-5-carboxamide] | 300 |
| CC(C)(C)OC(=O)N1CCCC(n2ncc(Cl)c2C(=O)Nc2ncc(C#Cc3ccccc3)cc2F)CC1 (stereo not drawn) [Compound 225, tert-butyl 4-(4-chloro-5-((3-fluoro-5-(phenylethynyl)pyridin-2-yl)carbamoyl)-1H-pyrazol-1-yl)azepane-1-carboxylate] | 350 |
| Cc1cc(C#Cc2ccccc2F)cnc1NC(=O)c1c(Cl)cnn1CCC1CCN(C(=O)C2CC2)CC1 [Compound 226, 4-chloro-1-(2-(1-(cyclopropanecarbonyl)piperidin-4-yl)ethyl)-N-(5-((2-fluorophenyl)ethynyl)-3-methylpyridin-2-yl)-1H-pyrazole-5-carboxamide] | 350 |
| O=C(Nc1ncc(C#Cc2ccccc2)cc1F)c1c(Cl)cnn1CC1CCOC1 (stereo not drawn) [Compound 217, 4-chloro-N-(3-fluoro-5-(phenylethynyl)pyridin-2-yl)-1-((tetrahydrofuran-3-yl)methyl)-1H-pyrazole-5-carboxamide] | 340 |

Further lines, results first:

| IC50 [nM] | Compound |
| --- | --- |
| 430 | Cc1cc(C#Cc2ccccc2)cnc1NC(=O)c1c(Cl)cnn1C[C@H]1C[C@@H]2CC[C@H]1O2 (racemic) [Compound 259, 4-chloro-N-[3-methyl-5-(phenylethynyl)pyridin-2-yl]-1-{[(1S,2S,4R)-7-oxabicyclo[2.2.1]heptan-2-yl]methyl}-1H-pyrazole-5-carboxamide and 4-chloro-N-[3-methyl-5-(phenylethynyl)pyridin-2-yl]-1-{[(1R,2R,4S)-7-oxabicyclo[2.2.1]heptan-2-yl]methyl}-1H-pyrazole-5-carboxamide] |
| 430 | Cc1cc(C#Cc2ccccc2)cnc1NC(=O)c1c(Cl)cnn1CC1CCN(C(=O)OC(C)(C)C)CC1C (stereo not drawn) [Compound 265, tert-butyl 4-((4-chloro-5-((3-methyl-5-(phenylethynyl)pyridin-2-yl)carbamoyl)-1H-pyrazol-1-yl)methyl)-3-methylpiperidine-1-carboxylate] |
| 410 | O=C(Nc1c(F)cc(C#Cc2ccccc2)cc1F)c1c(Cl)cnn1C[C@H]1COCCO1 [Compound 252, (S)-1-((1,4-dioxan-2-yl)methyl)-4-chloro-N-(2,6-difluoro-4-(phenylethynyl)phenyl)-1H-pyrazole-5-carboxamide] |
| 490 | Cc1cc(C#Cc2ccccc2)cnc1NC(=O)c1c(Cl)cnn1-c1ccc2c(c1)OCO2 [Compound 283, 1-(benzol[d][1,3]dioxol-5-yl)-4-chloro-N-(3-methyl-5-(phenylethynyl)pyridin-2-yl)-1H-pyrazole-5-carboxamide] |
| 370 | CC(C)(C)OC(=O)N1CC[C@@H](Cn2ncc(Cl)c2C(=O)Nc2ncc(C#Cc3ccccc3)cc2F)[C@H](F)C1 [Compound 240, tert-butyl (3S,4S)-4-((4-chloro-5-((3-fluoro-5-(phenylethynyl)pyridin-2-yl)carbamoyl)-1H-pyrazol-1-yl)methyl)-3-fluoropiperidine-1-carboxylate] |
| 570 | Cc1cc(C#Cc2ccccc2)cnc1NC(=O)c1c(Cl)cnn1-c1ccc2occc2c1 [Compound 304, 1-(benzofuran-5-yl)-4-chloro-N-(3-methyl-5-(phenylethynyl)pyridin-2-yl)-1H-pyrazole-5-carboxamide] |
| 900 | CC(=O)N1C[C@H]2C[C@H](n3ncc(Cl)c3C(=O)Nc3ncc(C#Cc4ccccc4F)cc3C)C[C@H]2C1 [Compound 359, 1-[(3aR,5s,6aS)-2-acetyloctahydrocyclopenta[c]pyrrol-5-yl]-4-chloro-N-{5-[(2-fluorophenyl)ethynyl]-3-methylpyridin-2-yl}-1H-pyrazole-5-carboxamide] |

Same assay, conditions: TREK-1 Thallium (Tl+) flux assay; values without footnote *12 are Method 1

| IC50 [nM] | Compound |
| --- | --- |
| 140 | O=C(Nc1ncc(C#Cc2ccccc2)cc1F)c1c(Cl)cnn1CCC1CCN(C(=O)C2CC2)CC1 [Compound 56, 4-chloro-1-(2-(1-(cyclopropanecarbonyl)piperidin-4-yl)ethyl)-N-(3-fluoro-5-(phenylethynyl)pyridin-2-yl)-1H-pyrazole-5-carboxamide] |
| 270 | Cc1cc(C#Cc2cccc(F)c2)cnc1NC(=O)c1c(Cl)cnn1CC1CCN(C(=O)C2CC2)CC1 [Compound 174, 4-chloro-1-((1-(cyclopropanecarbonyl)piperidin-4-yl)methyl)-N-(5-((3-fluorophenyl)ethynyl)-3-methylpyridin-2-yl)-1H-pyrazole-5-carboxamide] |
| 260 | Cc1cc(C#Cc2ccc(F)cc2)cnc1NC(=O)c1c(Cl)cnn1[C@H]1CC[C@@H](NC(=O)C2CC2)CC1 [Compound 165, 4-chloro-1-(cis-4-(cyclopropanecarboxamido)cyclohexyl)-N-(5-((4-fluorophenyl)ethynyl)-3-methylpyridin-2-yl)-1H-pyrazole-5-carboxamide] |
| 200 | CC(=O)N1C[C@H]2C[C@H](n3ncc(Cl)c3C(=O)Nc3ncc(C#Cc4cccs4)cc3C)C[C@H]2C1 [Compound 110, 1-[(3aR,5s,6aS)-2-acetyloctahydrocyclopenta[c]pyrrol-5-yl]-4-chloro-N-{3-methyl-5-[(thiophen-2-yl)ethynyl]pyridin-2-yl}-1H-pyrazole-5-carboxamide] |
| 200 | Cc1cc(C#Cc2cccs2)cnc1NC(=O)c1c(Cl)cnn1C1CCN(C(=O)C(C)C)CC1 [Compound 111, 4-chloro-1-(1-isobutyrylpiperidin-4-yl)-N-(3-methyl-5-(thiophen-2-ylethynyl)pyridin-2-yl)-1H-pyrazole-5-carboxamide] |
| 270 | CC(=O)N1CC2(CC(n3ncc(Cl)c3C(=O)Nc3ncc(C#Cc4ccccc4)cc3C)C2)C1 [Compound 173, 1-(2-acetyl-2-azaspiro[3.3]heptan-6-yl)-4-chloro-N-(3-methyl-5-(phenylethynyl)pyridin-2-yl)-1H-pyrazole-5-carboxamide] |
| 240 | Cc1cc(C#Cc2ccc(F)cc2)cnc1NC(=O)c1c(Cl)cnn1C1CCN(C(=O)C(C)C)CC1 [Compound 151, 4-chloro-N-(5-((4-fluorophenyl)ethynyl)-3-methylpyridin-2-yl)-1-(1-isobutyrylpiperidin-4-yl)-1H-pyrazole-5-carboxamide] |
| 200 | Cc1cc(C#Cc2ccc(F)cc2)cnc1NC(=O)c1c(Cl)cnn1CC1(C#N)CCN(C(=O)C(C)C)CC1 [Compound 119, 4-chloro-1-((4-cyano-1-isobutyrylpiperidin-4-yl)methyl)-N-(5-((4-fluorophenyl)ethynyl)-3-methylpyridin-2-yl)-1H-pyrazole-5-carboxamide] |
| 190 | Cc1cc(C#Cc2cccs2)cnc1NC(=O)c1c(Cl)cnn1CC1CCN(C(=O)C2COCCO2)CC1 (stereo not drawn) [Compound 103, 1-((1-(1,4-dioxane-2-carbonyl)piperidin-4-yl)methyl)-4-chloro-N-(3-methyl-5-(thiophen-2-ylethynyl)pyridin-2-yl)-1H-pyrazole-5-carboxamide] |
| 120 | Cc1cc(C#Cc2ccc(F)cc2)cnc1NC(=O)c1c(Cl)cnn1[C@H]1CC[C@@H](NC(=O)C2COCCO2)CC1 (stereo partly drawn) [Compound 38, 1-(cis-4-(1,4-dioxane-2-carboxamido)cyclohexyl)-4-chloro-N-(5-((4-fluorophenyl)ethynyl)-3-methylpyridin-2-yl)-1H-pyrazole-5-carboxamide] |
| 260 | Cc1cc(C#Cc2ccccc2)cnc1NC(=O)c1c(Cl)cnn1C[C@@H]1CCOC1 [Compound 160, (S)-4-chloro-N-(3-methyl-5-(phenylethynyl)pyridin-2-yl)-1-((tetrahydrofuran-3-yl)methyl)-1H-pyrazole-5-carboxamide] |
| 200 | CC(=O)N1CC2(CC(n3ncc(Cl)c3C(=O)Nc3ncc(C#Cc4ccccc4)cc3F)C2)C1 [Compound 113, 1-(2-acetyl-2-azaspiro[3.3]heptan-6-yl)-4-chloro-N-(3-fluoro-5-(phenylethynyl)pyridin-2-yl)-1H-pyrazole-5-carboxamide] |
| 240 | CC(=O)N1CC[C@H](n2ncc(Cl)c2C(=O)Nc2ncc(C#Cc3ccccc3)cc2F)[C@@H](F)C1 [Compound 154, 1-((3S,4S)-1-acetyl-3-fluoropiperidin-4-yl)-4-chloro-N-(3-fluoro-5-(phenylethynyl)pyridin-2-yl)-1H-pyrazole-5-carboxamide] |
